Patent US11845742B2, “Therapeutic compounds and methods to treat infection” (priority 2017, dated 2023)
Values after ≈ are worked out from the molar mass of the structure shown.

How the values were obtained:
[1] = target: T1, MexAB-OprM efflux transporter (Pseudomonas aeruginosa, UniProt P52002); conditions: wild-type P. aeruginosa, background statement; cited from earlier work
T1 construct: MexAB-OprM efflux transporter present in wild-type P. aeruginosa; endogenous in cells; host or cells: wild-type P. aeruginosa
T1 sequence (P52477 24-383): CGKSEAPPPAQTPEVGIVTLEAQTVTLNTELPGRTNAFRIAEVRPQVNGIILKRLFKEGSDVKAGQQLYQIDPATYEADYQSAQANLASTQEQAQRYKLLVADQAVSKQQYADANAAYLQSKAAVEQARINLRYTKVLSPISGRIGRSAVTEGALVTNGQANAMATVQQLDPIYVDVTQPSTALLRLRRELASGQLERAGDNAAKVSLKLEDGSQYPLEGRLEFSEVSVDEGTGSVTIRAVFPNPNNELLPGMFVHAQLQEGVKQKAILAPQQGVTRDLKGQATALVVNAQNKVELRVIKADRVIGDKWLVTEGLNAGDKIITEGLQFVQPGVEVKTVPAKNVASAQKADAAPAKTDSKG
T1 sequence (P52002 whole entry): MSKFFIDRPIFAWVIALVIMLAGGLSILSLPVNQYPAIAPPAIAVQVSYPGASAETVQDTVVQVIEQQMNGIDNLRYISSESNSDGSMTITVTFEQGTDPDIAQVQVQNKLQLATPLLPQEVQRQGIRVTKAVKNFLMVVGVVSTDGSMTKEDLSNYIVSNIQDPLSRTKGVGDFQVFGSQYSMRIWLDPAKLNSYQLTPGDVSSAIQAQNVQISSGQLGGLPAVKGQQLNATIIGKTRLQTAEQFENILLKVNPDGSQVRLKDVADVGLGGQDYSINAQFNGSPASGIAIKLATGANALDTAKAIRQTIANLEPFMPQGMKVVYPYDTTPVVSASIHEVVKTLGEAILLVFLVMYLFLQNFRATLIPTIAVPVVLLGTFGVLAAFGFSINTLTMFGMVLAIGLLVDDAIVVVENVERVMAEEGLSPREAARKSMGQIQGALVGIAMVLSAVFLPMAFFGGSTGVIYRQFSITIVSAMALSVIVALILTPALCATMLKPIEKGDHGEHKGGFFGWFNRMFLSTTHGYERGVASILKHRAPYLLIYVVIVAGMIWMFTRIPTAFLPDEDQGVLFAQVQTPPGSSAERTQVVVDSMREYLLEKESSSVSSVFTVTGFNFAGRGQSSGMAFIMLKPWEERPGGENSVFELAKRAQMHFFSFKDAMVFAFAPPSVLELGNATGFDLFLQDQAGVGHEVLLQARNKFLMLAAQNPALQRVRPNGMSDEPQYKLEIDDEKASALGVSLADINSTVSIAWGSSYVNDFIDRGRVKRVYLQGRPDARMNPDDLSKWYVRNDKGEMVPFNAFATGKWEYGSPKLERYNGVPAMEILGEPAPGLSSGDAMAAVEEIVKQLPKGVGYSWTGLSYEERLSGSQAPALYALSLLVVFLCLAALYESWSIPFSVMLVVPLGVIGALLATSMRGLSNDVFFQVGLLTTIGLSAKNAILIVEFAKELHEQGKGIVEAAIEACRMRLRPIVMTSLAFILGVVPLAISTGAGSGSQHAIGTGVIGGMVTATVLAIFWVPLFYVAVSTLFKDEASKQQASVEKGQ
T1 sequence (Q51487 18-485, further chain): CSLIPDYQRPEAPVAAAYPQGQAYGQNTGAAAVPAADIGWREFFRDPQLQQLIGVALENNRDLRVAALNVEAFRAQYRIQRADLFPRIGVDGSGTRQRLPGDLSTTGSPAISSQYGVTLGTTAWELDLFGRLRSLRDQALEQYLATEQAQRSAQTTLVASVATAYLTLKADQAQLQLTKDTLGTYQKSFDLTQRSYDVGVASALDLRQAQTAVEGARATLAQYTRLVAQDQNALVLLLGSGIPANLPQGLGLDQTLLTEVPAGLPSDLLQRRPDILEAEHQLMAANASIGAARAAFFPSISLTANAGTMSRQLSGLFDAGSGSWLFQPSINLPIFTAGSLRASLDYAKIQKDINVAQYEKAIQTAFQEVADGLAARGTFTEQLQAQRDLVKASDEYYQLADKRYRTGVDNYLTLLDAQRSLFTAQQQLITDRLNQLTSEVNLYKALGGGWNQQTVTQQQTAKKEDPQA

[2] = test system: MreB; conditions: P. aeruginosa; background statement; cited from earlier work
[3] = test system: P. Aeruginosa PAO1; assay: Intrinsic MIC assay (broth microdilution), P. aeruginosa PAO1; type: cell-based, Pseudomonas aeruginosa; conditions: Pseudomonas aeruginosa, 18 h; P. Aeruginosa PAO1, without EPI; read-out: Intrinsic MIC
Procedure: (§1) MIC assays were conducted in accordance with Clinical and Laboratory Standards Institute (CLSI) guidelines for broth microdilution.
(§2) The intrinsic MIC of the experimental EPIs was tested with the method described. The 2-fold serial dilution begins with 100 μg/mL of tested compound in the first column of the 96-well plates. The following Gram-negative bacterial strains were included in these assays: • Escherichia coli ATCC 25922 • Klebsiella pneumoniae ATCC 13883 and ATCC 10031 • Pseudomonas aeruginosa ATCC 27853. • Pseudomonas aeruginosa PAO1 • Acinetobacter baumannii ATCC 19606

[4] = test system: A. baumannii ATCC 19606; assay: Intrinsic MIC assay (broth microdilution), A. baumannii; type: cell-based, Acinetobacter baumannii; conditions: Acinetobacter baumannii, ATCC19606; A. baumannii ATCC 19606; read-out: Intrinsic MIC
Procedure: as §1, §2

[5] = test system: P. Aeruginosa PAO1; assay: MIC assay in the presence of a bacterial efflux pump inhibitor (EPI), P. aeruginosa PAO1; type: cell-based, Pseudomonas aeruginosa; conditions: in the presence of 12.5 μg/ml of N-(((2S,4R)-4-(aminomethyl)pyrrolidin-2-yl)methyl)-6-(4-fluorophenyl)-1H-indole-2-carboxamide
Procedure: The ability of a compound to produce an antibiotic effect can be determined using a method as described in Example 11. Data for representative compounds used in combination with the bacterial efflux pump inhibitor (EPI) N-(((2S,4R)-4-(aminomethyl)pyrrolidin-2-yl)methyl)-6-(4-fluorophenyl)-1H-indole-2-carboxamide is shown in Table 1.
as §1
The EPI assay for the purposes of these studies represents a MIC assay in which the MIC of the antibiotic against the bacteria is tested in the presence of an experimental efflux pump inhibitor (EPI). The highest concentration of the EPI present in the assay typically is ½ of the intrinsic MIC of the compound. […] Using serial dilutions of the EPI, its enhancement of antibiotic activity was then evaluated. The relative EPI activity was decided by comparing the MIC of the antibiotic in the presence of the EPI compound with the intrinsic MIC of the antibiotic alone. For comparative purposes, we generally used EPIs at concentration of 12.5 and 6.25 μg/ml against varying concentration of our test antibiotic.

[6] = test system: E. coli ATCC 25922; assay: Intrinsic MIC assay (broth microdilution), E. coli; type: cell-based, Escherichia coli; conditions: Escherichia coli, ATCC25922; E. coli ATCC 25922; read-out: Intrinsic MIC
Procedure: as §1, §2

[7] = test system: K. pneumoniae ATCC 10031; assay: Intrinsic MIC assay (broth microdilution), K. pneumoniae; type: cell-based, Klebsiella pneumoniae; conditions: Klebsiella pneumoniae, ATCC10031; K. pneumoniae ATCC 10031; read-out: Intrinsic MIC
Procedure: as §1, §2

SMILES	Efflux transporter substrate [1]	MreB inhibition [2]	MIC [3] [µg/mL]	MIC [4] [µg/mL]	MIC in the Presence of EPI* [5] [µg/mL]	MIC [6] [µg/mL]	MIC [7] [µg/mL]
NC1CCCc2c1[nH]c1ccc(Br)cc21 (centres unmarked) [CBR-4830]	substrate for the MexAB-OprM efflux transporter	effective MreB inhibitor					
CC(NCCCNC(=O)c1cc(Cl)c(Cl)s1)c1cc2cc(Br)ccc2[nH]1 (centres unmarked) [Example 25, N-(3-((1-(5-Bromo-1H-indol-2-yl)ethyl)amino)propyl)-4,5-dichlorothiophene-2-carboxamide]			> 256	16 (≈ 33.7 µM)	16	8 (≈ 16.8 µM)	1 (≈ 2.1 µM)
CC(NCCCNC(=O)c1ccc(Cl)o1)c1cc2cc(Br)ccc2[nH]1 (centres unmarked) [Example 26, N-(3-((1-(5-Bromo-1H-indol-2-yl)ethyl)amino)propyl)-5-chlorofuran-2-carboxamide]			> 256	128 (≈ 301 µM)	16	64 (≈ 151 µM)	16 (≈ 37.7 µM)
CC(NCCCNC(=O)c1ccc(Cl)c(Cl)c1)c1cc2cc(Br)ccc2[nH]1 (centres unmarked) [Example 30, N-(3-((1-(5-Bromo-1H-indol-2-yl)ethyl)amino)propyl)-3,4-dichlorobenzamide]			> 256	64 (≈ 136 µM)	32	32 (≈ 68.2 µM)	4 (≈ 8.52 µM)
CC(NCCCNC(=O)C1CCCCC1)c1cc2cc(Br)ccc2[nH]1 (centres unmarked) [Example 31, N-(3-((1-(5-Bromo-1H-indol-2-yl)ethyl)amino)propyl)cyclohexanecarboxamide]			> 256	64 (≈ 157 µM)	128	64 (≈ 157 µM)	16 (≈ 39.4 µM)
CCCCNC(C)c1cc2cc(Br)ccc2[nH]1 (centres unmarked) [Example 32, N-(1-(5-Bromo-1H-indol-2-yl)ethyl)butan-1-amine]			> 256	64 (≈ 217 µM)	64	32 (≈ 108 µM)	16 (≈ 54.2 µM)
CC(NCCc1ccccc1)c1cc2cc(Br)ccc2[nH]1 (centres unmarked) [Example 33, 1-(5-Bromo-1H-indol-2-yl)-N-phenethylethan-1-amine]			> 256	32 (≈ 93.2 µM)	32	16 (≈ 46.6 µM)	4 (≈ 11.7 µM)
CC(NCCNC(=O)c1ccc(Cl)c(Cl)c1)c1cc2cc(Br)ccc2[nH]1 (centres unmarked) [Example 34, N-(2-((1-(5-Bromo-1H-indol-2-yl)ethyl)amino)ethyl)-3,4-dichlorobenzamide]			> 256	64 (≈ 141 µM)	32	32 (≈ 70.3 µM)	4 (≈ 8.79 µM)
CC(NCC1CC1)c1cc2cc(Br)ccc2[nH]1 (centres unmarked) [Example 35, 1-(5-Bromo-1H-indol-2-yl)-N-(cyclopropylmethyl)ethan-1-amine]			> 256	128 (≈ 437 µM)	256	128 (≈ 437 µM)	64 (≈ 218 µM)
NC(CCc1ccccc1)c1cc2cc(Br)ccc2[nH]1 (centres unmarked) [Example 36, 1-(5-Bromo-1H-indol-2-yl)-3-phenylpropan-1-amine]			> 256	32 (≈ 97.2 µM)	32	16 (≈ 48.6 µM)	8 (≈ 24.3 µM)
CC(NCCCC(=O)Nc1ccc(Cl)c(Cl)c1)c1cc2cc(Br)ccc2[nH]1 (centres unmarked) [Example 37, 4-((1-(5-Bromo-1H-indol-2-yl)ethyl)amino)-N-(3,4-dichlorophenyl)butanamide]			> 256	32 (≈ 68.2 µM)	16	16 (≈ 34.1 µM)	4 (≈ 8.52 µM)
CC(NCCCCOc1ccc(Cl)c(Cl)c1)c1cc2cc(Br)ccc2[nH]1 (centres unmarked) [Example 38, N-(1-(5-Bromo-1H-indol-2-yl)ethyl)-4-(3,4-dichlorophenoxy)butan-1-amine]			> 256	64 (≈ 140 µM)	16	16 (≈ 35.1 µM)	4 (≈ 8.77 µM)
CCNCCNC(C)c1cc2cc(Br)ccc2[nH]1 (centres unmarked) [Example 39, N^1-(1-(5-Bromo-1H-indol-2-yl)ethyl)-N^2-ethylethane-1,2-diaminehydrochloricacid]			> 256	256 (≈ 825 µM)	> 256	256 (≈ 825 µM)	128 (≈ 413 µM)
